Data on five molecules can be found in ChEMBL document CHEMBL1681747, “Novel second generation analogs of eribulin. Part II: Orally available and active against resistant tumors in vivo” (Bioorg Med Chem Lett, 2011).

Series [1] concerns DLD-1. Description: Antitumor activity against human DLD1 cells xenografted in athymic mouse assessed as tumor stasis at 1.3 to 3 mg/kg, iv administered 2 weeks after tumor implantation qd for weekly 3 days. Format: functional, organism-based.
Series [2] deals with DLD-1. Put plainly: Cytotoxicity against human DLD1 cells. Format: functional, cell-based.
A further series has as its system HCT-15. Put plainly: Cytotoxicity against human HCT15 cells. Format: functional, cell-based.
Series [3] in a line: AUC (0 to infinity) in BALB/c mouse at 5 mg/kg. Format: ADME, organism-based. Further details: time infinity, dose 5 mg/kg. Particulars: plasma.
Series [4] in a line: Half life in BALB/c mouse at 5 mg/kg. Format: ADME, organism-based. Particulars: in vivo. Also on record: dose 5 mg/kg.
Series [5] can be described thus: Volume of distribution at steady state in BALB/c mouse at 5 mg/kg, iv. Format: ADME, organism-based. Further details: dose 5 mg/kg, route intravenous. As to conditions: in vivo, read-out: Vdss.
A short description of series [6]: Clearance in BALB/c mouse at 5 mg/kg, iv. Also on record: dose 5 mg/kg, route intravenous. Format: ADME, organism-based. As to conditions: in vivo.
Series [7] is described as follows: Oral bioavailability in BALB/c mouse at 5 mg/kg. Format: ADME, organism-based. As to conditions: in vivo.
The nature of series [8]: Tmax in BALB/c mouse at 5 mg/kg. Format: ADME, organism-based. Also on record: dose 5 mg/kg. Particulars: in vivo.
The test system of series [9] is DLD-1. Put plainly: Antitumor activity against human DLD1 cells xenografted in iv dosed athymic mouse assessed as tumor growth inhibition administered qd for weekly 3 days. Format: functional, organism-based.
In the next series the test system is LOX. Description: Antitumor activity against human LOX cells xenografted in athymic mouse assessed as long term tumor regression at 0.95 to 3 mg/kg, po administered 6 days after tumor implantation qd for 2 weeks. Format: functional, organism-based.
A short description of series [10]: AUC (0 to infinity) in BALB/c mouse at 10 mg/kg. Format: ADME, organism-based. Further details: time infinity, dose 10 mg/kg. As to conditions: plasma.
A short description of series [11]: Half life in BALB/c mouse at 10 mg/kg. Format: ADME, organism-based. Particulars: in vivo. Also on record: dose 10 mg/kg.
The nature of series [12]: Volume of distribution at steady state in BALB/c mouse at 10 mg/kg, iv. Format: ADME, organism-based. Also on record: dose 10 mg/kg, route intravenous. As to conditions: in vivo, read-out: Vdss.
A short description of series [13]: Clearance in BALB/c mouse at 10 mg/kg, iv. Also on record: dose 10 mg/kg, route intravenous. Format: ADME, organism-based. Particulars: in vivo.
Series [14] can be described thus: Oral bioavailability in BALB/c mouse at 10 mg/kg. Format: ADME, organism-based. Particulars: in vivo.
The nature of series [15]: Tmax in BALB/c mouse at 10 mg/kg. Format: ADME, organism-based. Also on record: dose 10 mg/kg. Particulars: in vivo.
Series [16] can be described thus: Cytotoxicity against human MES-SA cells. Format: functional, cell-based.
Series [17] can be described thus: Cytotoxicity against human MES-SA/Dx5-Rx1 cells. Format: functional, cell-based.
The subject of a further series is MES-SA. Put plainly: Fold resistant ratio of IC50 for MES-SA/Dx5-Rx1 cells to IC50 for human MES-SA cells.

pIC50: −log10 of the molar value. Calls of active or inactive are those of the source. The rule behind the calls is not given here.

`C=C1C[C@@H]2CC[C@@]34C[C@H]5O[C@H]6[C@@H](O3)[C@H]3O[C@H](CC[C@@H]3O[C@H]6[C@H]5O4)CC(=O)C[C@@H]3[C@@H](OC)[C@@H](C[C@@H](CN4CCOCC4)OC)O[C@H]3C[C@H]3O[C@@H](CC[C@@H]1O2)C[C@@H](C)C3=C`: the result in the series on DLD-1 [1] and with LOX was Active. For the same molecule, the figures for the pIC50 with DLD-1 [2] and in the series with HCT-15 were 9.64 and 9.70, respectively. This molecule returned an AUC(0-inf) in series [3] of 1090 ng·h/mL. Besides, the half-life in [4] was 54 min. Moreover, in [5], the Vd is 0.92 L/kg. The same molecule gave a clearance in series [6] of 11.3 mL/min/kg. The molecule further displayed a bioavailability in [7] of 14.9%. The Tmax in series [8] is 5 min. For the same molecule, in the series with DLD-1 [9], the Activity entry is “Dose-dependent effect”.
In the case of `C=C1C[C@@H]2CC[C@@]34C[C@H]5O[C@H]6[C@@H](O3)[C@H]3O[C@H](CC[C@@H]3O[C@H]6[C@H]5O4)CC(=O)C[C@@H]3[C@@H](OC)[C@@H](C[C@H](O)CN)O[C@H]3C[C@H]3O[C@@H](CC[C@@H]1O2)C[C@@H](C)C3=C` [ERIBULIN], in series [10], the AUC(0-inf) turned out to be 161 ng·h/mL. This molecule also gave a half-life in [11] of 924 min. In addition, the Vd in [12] is 4.95 L/kg. Also, the clearance in series [13] was 19.8 mL/min/kg. In addition, the bioavailability in series [14] amounted to 3.2%. In addition, in series [15], the Tmax is 5 min.
Regarding `C=C1C[C@@H]2CC[C@@]34C[C@H]5O[C@H]6[C@@H](O3)[C@H]3O[C@H](CC[C@@H]3O[C@H]6[C@H]5O4)CC(=O)C[C@@H]3[C@@H](OC)[C@@H](CCNCC(F)F)O[C@H]3C[C@H]3O[C@@H](CC[C@@H]1O2)C[C@@H](C)C3=C`, the results for the pIC50 in the series with DLD-1 [2] and in the series with HCT-15 were 8.50 and 8.51, respectively. In addition, the AUC(0-inf) in series [3] worked out at 63 ng·h/mL. This molecule also gave a half-life in series [4] of 246 min. Also, the Vd in series [5] was 4.78 L/kg. The clearance in [6] is 48.5 mL/min/kg. Moreover, the bioavailability in series [7] turned out to be 11.3%. Also, in series [8], the time to peak (Tmax) was 5 min.
In the case of `C=C1C[C@@H]2CC[C@@]34C[C@H]5O[C@H]6[C@@H](O3)[C@H]3O[C@H](CC[C@@H]3O[C@H]6[C@H]5O4)CC(=O)C[C@@H]3[C@@H](OC)[C@@H](C[C@@H](CN4CC4C)OC)O[C@H]3C[C@H]3O[C@@H](CC[C@@H]1O2)C[C@@H](C)C3=C` (stereo partly drawn), the pIC50 is 9.89 in series [16], 8.59 in series [17], 9.54 in the series on DLD-1 [2] and 9.40 with HCT-15. The “Ratio IC50” value in the series with MES-SA is reported as 19.91.
As to `C=C1C[C@@H]2CC[C@@]34C[C@H]5O[C@H]6[C@@H](O3)[C@H]3O[C@H](CC[C@@H]3O[C@H]6[C@H]5O4)CC(=O)C[C@@H]3[C@@H](OC)[C@@H](CC(=O)CN4CCOCC4)O[C@H]3C[C@H]3O[C@@H](CC[C@@H]1O2)C[C@@H](C)C3=C`, the figures for the pIC50 in the series with DLD-1 [2] and in the series with HCT-15 were 9.15 and 9.34, respectively. The molecule further displayed an AUC(0-inf) in series [3] of 236 ng·h/mL. In series [4], the half-life is 102 min. In addition, the Vd in series [5] amounted to 3.64 L/kg. Also, the clearance in series [6] is 47 mL/min/kg. The bioavailability in series [7] is 13.3%. Moreover, the Tmax in series [8] is 5 min.
